Reference: patent US11179385B2 (THE TRUSTEES OF THE UNIVERSITY OF PENNSYLVANIA, priority 2015, dated 2021)

Experiments:
[1] = tested on: melanoma in Tyr::creER, BRAF^ca, Pten^lox/lox mice; assay: Topical resiquimod gel on melanoma progression in Tyr::creER, BRAFca, Ptenlox/lox mice; format: in vivo, mouse
Description: FIGS. 3A-3I. […] FIG. 3A) Treatment scheme. FIG. 3B) Representative image of a mouse with control treatment (n=15). […] FIG. 3D) Histology of melanoma in a control mouse. […] FIG. 3E) Histology of melanoma in a treated mouse. […] Bars indicate 6 mm in FIG. 3B and FIG. 3C, 400 μm in FIG. 3D and FIG. 3E and 50 μm in FIG. 3H and FIG. 3I.
FIGS. 4A-4I. […] FIG. 4A) Treatment scheme. […] All measurement was compared to the control. *indicates p<0.05.
Tumor and spleen tissues were processed and multicolor flow cytometry analysis was performed.

[2] = Stability and solubility of resiquimod in ethanol:PBS topical formulation (HPLC); format: physicochemical; conditions: 50:50 ethanol:pbs topical formulation aged for 2 weeks
[3] = tested on: nevus-like pigmented tumors in Tyr::creER, BRAF^ca mice; assay: Topical resiquimod gel on pigmented tumor progression in Tyr::creER, BRAFca mice (nevus model); format: in vivo, mouse
Method: FIGS. 1A-1I. […] FIG. 1A) Treatment scheme. […] FIG. 1D) Pigmented lesion in a mouse before treatment. […] FIG. 1F) Histology of tumor treated with vehicle. […] Bars in b-e indicate 6 mm. Bars in f-h indicate 200 μm.
A majority of nevi and melanomas contain BRAF mutations, particularly the BRAFV600E mutation.
Mice treated with blank topical gel were used as controls. […] Tumor diameters were measured using calipers every three days.

T cells from spleen = assay: Cytokine release by T cells from spleen after stimulation; format: cell-based, mouse; conditions: resiquimod treated T cells from spleen
Method: (§1) Once these mice developed palpable tumors, resiquimod treatment was administered twice a week. […] CD8 depletion was achieved using anti-CD8 antibody. […]

[4] = tested on: T cell activation; cytokine induction; conditions: cited from earlier work
[5] = tested on: melanoma in Tyr::creER, BRAF^ca, Pten^lox/lox mice; assay: Resiquimod in combination with anti-PD1 therapy in Tyr::creER, BRAFca, Ptenlox/lox mice; format: in vivo, mouse; conditions: 0.2% resiquimod twice a week for 6 weeks; anti-PD1 200 μg i.p. twice a week for 5 weeks
Description: FIGS. 7A-7G. […] FIG. 7A) Treatment scheme. […] FIG. 7F) Effect of therapies on melanoma growth (n=5 each group). FIG. 7G) Effect of therapies on lymph node metastasis. *indicates p<0.05. **indicates p<0.01. Bars indicate 6 mm.

[6] = tested on: B16-F10 melanoma cells in C57BL/6J mice; assay: Topical resiquimod gel in the B16 melanoma model; format: in vivo, mouse
Description: FIGS. 5A-5E. […] FIG. 5A) Treatment scheme. […] Arrow points to the inflammatory cells. FIG. 5E) Fold changes in cytokine and chemokine mRNA expression in the tumor tissues from treated mice compared to control mice. *indicates p<0.05. Bars in d indicate 25 μm.
Tumor tissues were processed and we measured cytokine and chemokine mRNA expression in the tumor using qRT-PCR.

[7] = tested on: B16-F10 melanoma cells in RAG-1-deficient mice; assay: Resiquimod gel in RAG-1-deficient mice with B16-F10 melanoma; format: in vivo, mouse
Method: as §1

[8] = tested on: melanoma in Tyr::creER, BRAF^ca, Phd2^lox/lox mice; assay: Topical resiquimod on melanoma progression in Tyr::creER, BRAFca, Phd2lox/lox mice; format: in vivo, mouse; conditions: topical 0.2% twice a week for 6 weeks
Description: FIGS. 2A-2L. […] FIG. 2A) Treatment scheme. FIG. 2B) Large tumor in a mouse treated with vehicle (n=10). FIG. 2C) Underside of skin filled with tumor. FIGS. 2D and 2E) Histology of melanoma in a control mouse. The dermis is filled with tumor cells. […] FIG. 2G) Underside of skin cleared of tumor. FIG. 2H) Histology of skin in a treated mouse, normal appearing. FIG. 2I) Macrophages with pigment are present in the dermis in a treated mouse. Arrow points to macrophages. FIG. 2J)Tumor growth curve. FIG. 2K) In situ melanoma in control mice. Arrows point to the tumor cells in the epidermis and hair follicle. I) Normal appearing epidermis in treated mice. *indicates p<0.05. Bars in b, c, f and g indicate 6 mm. Bars in d, e, h and I, indicate 200 μm. Bars in k and l indicate 10 μm.
The Tyr:creER, BRAF^ca, phd2^lox/lox mouse melanoma model was developed in Dr. Xu's lab. Melanoma can be induced with 100% penetrance using topical 4-HT. Lymph node metastasis is frequent in these mice. […] The melanoma in control mice grew and the tumor became very big at day 180 (FIG. 2B). These mice were sacrificed. The underside of skin was occupied completely by tumor (FIG. 2C). Histologically, the dermis was filled entirely by melanoma cells (FIG. 2D and FIG. 2E). […] Histologically, dermal melanoma had regressed (FIG. 2H) and numerous macrophages with pigment were present in the dermis (FIG. 2I), indicating melanoma has regressed. None of the treated mice developed lymph node metastasis.

[9] = tested on: B16-F10 melanoma cells in CD8 depleted C57 mice; assay: Resiquimod gel in CD8 depleted C57 mice with B16-F10 melanoma; format: in vivo, mouse
Method: as §1

[10] = treated 3 weeks, flow cytometry of tumor
[11] = 0.2% resiquimod gel twice a week
[12] = qRT-PCR, compared to control mice

Q: Which “melanoma growth (tumor volume)” value ([1]; resiquimod gel twice a week for 6 weeks vs control vehicle) does the source give for `CCOCc1nc2c(N)nc3ccccc3c2n1CC(C)(C)O` [resiquimod, 1-[4-amino-2-(ethoxymethyl)imidazo[4,5-c]quinolin-1-yl]-2-methylpropan-2-ol] here?
A: significantly slowed melanoma growth

Q: And the tumor thickness ([1]; treated 3 weeks)?
A: significantly thinner tumors

Q: And the “CD45+CD11B+F4/80-Ly6g high MDSCs in the tumor” value [1, 10]?
A: decrease

Q: And the “PD1+CD8+ T cells” value [1, 10]?
A: significantly increased

Q: And the “expression of granzyme B in CD8^- T cells” value [1, 10]?
A: increased

Q: And the “intratumoral CD45+ inflammatory cells” value [1, 10]?
A: significant increase

Q: And the “number of GranB+CD8+ T cells” value [1, 10]?
A: increased

Q: And the “number of GranB+CD8+Ki-67+ T cells” value [1, 10]?
A: increased

Q: And the “mice that developed lymph node metastasis” value ([1]; treated 3 weeks, sacrificed on treatment, control: all 5 mice)?
A: 2 of 5

Q: What about the “positive lymph nodes per mouse with metastasis” value ([1]; treated 3 weeks, control 2-4 per mouse) of the same compound?
A: 1

Q: What about the “histology: infiltration of melanoma through skeletal muscle” value ([1]; twice a week for 6 weeks) of the same compound?
A: did not infiltrate through the skeletal muscle

Q: What about the “in situ melanoma in the epidermis” value ([1]; twice a week for 6 weeks) of the same compound?
A: disappeared after treatment

Q: What about the “lifespan (survival) of treated mice” value ([1]; twice a week for 6 weeks) of the same compound?
A: prolonged the lifespan

Q: And the “solubility in base formulation” value [2]?
A: soluble

Q: And the “pigmented lesion growth (tumor diameter)” value ([3]; 0.2% resiquimod topical gel twice a week for six weeks vs blank gel)?
A: regressed

Q: And the “histology: pigmented tumor cells in the dermis” value ([3]; 0.2% topical gel twice a week for six weeks)?
A: disappeared

Q: What about the “pigmented tumor cells in the epidermis” value ([3]; 0.2% topical gel twice a week for six weeks, data not shown) of the same compound?
A: regressed completely

Q: What about the “palpable pigmented lesion after treatment” value ([3]; different experiment, topical resiquimod for 1 month) of the same compound?
A: disappeared after treatment

Q: And the “expression of IFN-γ by T cells after stimulation” value (T cells from spleen)?
A: increased expression

Q: What about the “induction of IFN-α, TNF-α, IL-1, IL-6, IL-8 and IL-12 compared with imiquimod” value [4] of the same compound?
A: more potent inducer

Q: What about the “lymph node metastasis (number of positive lymph nodes)” value [5] of the same compound?
A: significantly reduced

Q: And the “melanoma growth (tumor volume)” value [5]?
A: significantly slowed melanoma growth

Q: What about the “histology: inflammatory cells in the tumor” value [6, 11] of the same compound?
A: more inflammatory cells

Q: And the “lifespan (survival) of treated mice” value [6, 11]?
A: prolonged the lifespan

Q: And the melanoma growth [6, 11]?
A: significantly slowed the melanoma growth

Q: What about the “CCL2 mRNA expression in the tumor” value [6, 12] of the same compound?
A: increased

Q: And the “INF-γ mRNA expression in the tumor” value [6, 12]?
A: increased

Q: What about the “TNF-α mRNA expression in the tumor” value [6, 12] of the same compound?
A: increased

Q: And the “effect on melanoma growth” value ([7]; RAG-1-deficient mice, resiquimod gel twice a week)?
A: little effect

Q: And the “effect of resiquimod on survival curves” value ([7]; Rag-1-deficient mice)?
A: abolished

Q: And the “histology: dermal melanoma” value [8]?
A: regressed

Q: And the “melanoma cells in the epidermis (in situ melanoma)” value [8]?
A: disappeared after treatment

Q: And the “treated mice that developed lymph node metastasis” value [8]?
A: None

Q: And the “tumor on underside of skin” value [8]?
A: significantly less tumors

Q: What about the melanoma growth ([8]; started 140 days after induction) of the same compound?
A: inhibited

Q: What about the “effect of resiquimod on survival curves” value ([9]; CD8-depleted mice) of the same compound?
A: abolished

Q: What about the effect on melanoma ([9]; CD8 T cell depleted mice (anti-CD8 antibody), resiquimod twice a week) of the same compound?
A: little effect
